Measured values published in PubChem BioAssay (NCI).
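Growth conditions: 96-well plates. Treatment: test compound, 48 hours, 5 concentrations. Analysis: linear interpolation between bracketing concentrations; unreached endpoints set to highest concentration. At the GI50, growth is halved. At the TGI there is no net growth.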

Tests used:
Experiment in all cases: growth of human tumour cells (NCI), 48 h
[1] = system: HT29 colon
[2] = system: COLO 205 colon
[3] = system: IGROV1 ovarian
[4] = system: TK-10 renal
[5] = system: HCC-2998 colon
[6] = system: PC-3 prostate
[7] = system: 786-0 renal
[8] = system: A498 renal
[9] = system: DU-145 prostate
[10] = system: SK-MEL-28 melanoma
[11] = system: K-562 leukemia
[12] = system: MCF7 breast
[13] = system: MALME-3M melanoma
[14] = system: BT-549 breast
[15] = system: NCI-H23 lung
[16] = system: MOLT-4 leukemia
[17] = system: RPMI-8226 leukemia
[18] = system: SR leukemia
[19] = system: SN12C renal
[20] = system: A549 NSCLC
[21] = system: CCRF-CEM leukemia
[22] = system: HCT-15 colon
[23] = system: RXF 393 renal
[24] = system: SK-MEL-2 melanoma
[25] = system: ACHN renal
[26] = system: SK-OV-3 ovarian
[27] = system: SF-268 CNS
[28] = system: SK-MEL-5 melanoma
[29] = system: SW-620 colon
[30] = system: SF-539 CNS
[31] = system: OVCAR-5 ovarian
[32] = system: MDA-MB-435
[33] = system: HCT-116 colon
[34] = system: M14 melanoma
[35] = system: KM12 colon
[36] = system: EKVX NSCLC
[37] = system: UACC-257 melanoma
[38] = system: HS 578T breast
[39] = system: HL-60(TB) leukemia
[40] = system: OVCAR-8 ovarian
[41] = system: OVCAR-3 ovarian
[42] = system: OVCAR-4 ovarian
[43] = system: SNB-75 CNS
[44] = system: NCI-H460 lung
[45] = system: HOP-92 NSCLC
[46] = system: U251 CNS
[47] = system: UO-31 renal
[48] = system: CAKI-1 renal
[49] = system: NCI-H226 lung
[50] = system: T-47D breast
[51] = system: UACC-62 melanoma
[52] = system: HOP-62 NSCLC
[53] = system: NCI-H522 lung
[54] = system: SNB-19 CNS
[55] = system: NCI/ADR-RES ovarian
[56] = system: LOX IMVI melanoma
[57] = system: MDA-MB-231 breast
[58] = system: SF-295 CNS

O=Cc1cn(Cc2ccc(Cl)cc2)c2ccccc12
GI50 [1]: 24.4 µM | TGI [1]: > 100 µM | GI50 [2]: 2.17 µM | TGI [2]: 20.7 µM | GI50 [3]: 1.22 µM | TGI [3]: 39.4 µM | GI50 [4]: 0.162 µM | TGI [4]: 1.52 µM | GI50 [5]: 14.3 µM | TGI [5]: > 100 µM | GI50 [6]: 12.8 µM | TGI [6]: 73.2 µM | GI50 [7]: 13.6 µM | TGI [7]: 64.5 µM | GI50 [8]: 0.0342 µM | TGI [8]: 0.172 µM | GI50 [9]: 22.3 µM | TGI [9]: > 100 µM | GI50 [10]: 33.6 µM | TGI [10]: > 100 µM | GI50 [11]: 4.21 µM | TGI [11]: > 100 µM | GI50 [12]: 4.12 µM | TGI [12]: > 67.2 µM | GI50 [13]: 14.3 µM | TGI [13]: 43.3 µM | GI50 [14]: 11.4 µM | TGI [14]: 49.2 µM | GI50 [15]: 8.37 µM | TGI [15]: > 100 µM | GI50 [16]: 17.9 µM | TGI [16]: > 82.7 µM | GI50 [17]: 7.14 µM | TGI [17]: > 100 µM | GI50 [18]: 16.5 µM | TGI [18]: > 79.4 µM | GI50 [19]: 14.9 µM | TGI [19]: > 100 µM | GI50 [20]: 13.4 µM | TGI [20]: > 100 µM | GI50 [21]: 19.7 µM | TGI [21]: > 100 µM | GI50 [22]: 15.5 µM | TGI [22]: > 100 µM | GI50 [23]: 4.59 µM | TGI [23]: 51.8 µM | GI50 [24]: 8.49 µM | TGI [24]: 66.1 µM | GI50 [25]: 27.4 µM | TGI [25]: > 100 µM | GI50 [26]: 1.84 µM | TGI [26]: 44.8 µM | GI50 [27]: 21.4 µM | TGI [27]: > 100 µM | GI50 [28]: 8.18 µM | TGI [28]: 22.3 µM | GI50 [29]: 13.2 µM | TGI [29]: > 100 µM | GI50 [30]: 16.6 µM | TGI [30]: 50.3 µM | GI50 [31]: 0.082 µM | TGI [31]: 0.659 µM | GI50 [32]: 23 µM | TGI [32]: > 100 µM | GI50 [33]: 4.83 µM | TGI [33]: 30 µM | GI50 [34]: 15.2 µM | TGI [34]: 72.5 µM | GI50 [35]: 26.4 µM | TGI [35]: > 100 µM | GI50 [36]: 21 µM | TGI [36]: > 100 µM | GI50 [37]: 2.05 µM | TGI [37]: 7.44 µM | GI50 [38]: 19.2 µM | TGI [38]: > 100 µM | GI50 [39]: 22.5 µM | TGI [39]: 72.8 µM | GI50 [40]: 23.5 µM | TGI [40]: > 100 µM | GI50 [41]: 6.64 µM | TGI [41]: 61.7 µM | GI50 [42]: 4.39 µM | TGI [42]: > 100 µM | GI50 [43]: 8.26 µM | TGI [43]: > 100 µM | GI50 [44]: 0.115 µM | TGI [44]: 11.2 µM | GI50 [45]: 4.43 µM | TGI [45]: 49 µM | GI50 [46]: 13.3 µM | TGI [46]: > 100 µM | GI50 [47]: 3.35 µM | TGI [47]: 45.4 µM | GI50 [48]: 0.101 µM | TGI [48]: 3.42 µM | GI50 [49]: 0.041 µM | TGI [49]: 0.251 µM | GI50 [50]: 1.84 µM | TGI [50]: 69.7 µM | GI50 [51]: 1.32 µM | TGI [51]: 9.09 µM | GI50 [52]: 2.63 µM | TGI [52]: > 100 µM | GI50 [53]: 73.2 µM | TGI [53]: > 100 µM | GI50 [54]: 19.4 µM | TGI [54]: > 100 µM | GI50 [55]: 13.9 µM | TGI [55]: > 100 µM | GI50 [56]: 12.1 µM | TGI [56]: > 95 µM | GI50 [57]: 9.7 µM | TGI [57]: > 56.3 µM | GI50 [58]: 0.992 µM | TGI [58]: 34.9 µM
